A word on the pIC50: it is the negative decadic logarithm of the IC50, by convention in mol/L.

The structures appear in SMILES notation. pIC50: −log10 of the molar value.

In this test the target is T1, RSV ribonucleoprotein (RNP) complexes (Human respiratory syncytial virus A, UniProt P28887).
T1 construct: The supernatant (S3) fraction, containing the enriched RSV RNP complexes, was collected; endogenous in cells; host or cells: HEp-2 cells infected with RSV A2; detergent-extracted crude S3 fraction
T1 sequence (P28887 whole entry): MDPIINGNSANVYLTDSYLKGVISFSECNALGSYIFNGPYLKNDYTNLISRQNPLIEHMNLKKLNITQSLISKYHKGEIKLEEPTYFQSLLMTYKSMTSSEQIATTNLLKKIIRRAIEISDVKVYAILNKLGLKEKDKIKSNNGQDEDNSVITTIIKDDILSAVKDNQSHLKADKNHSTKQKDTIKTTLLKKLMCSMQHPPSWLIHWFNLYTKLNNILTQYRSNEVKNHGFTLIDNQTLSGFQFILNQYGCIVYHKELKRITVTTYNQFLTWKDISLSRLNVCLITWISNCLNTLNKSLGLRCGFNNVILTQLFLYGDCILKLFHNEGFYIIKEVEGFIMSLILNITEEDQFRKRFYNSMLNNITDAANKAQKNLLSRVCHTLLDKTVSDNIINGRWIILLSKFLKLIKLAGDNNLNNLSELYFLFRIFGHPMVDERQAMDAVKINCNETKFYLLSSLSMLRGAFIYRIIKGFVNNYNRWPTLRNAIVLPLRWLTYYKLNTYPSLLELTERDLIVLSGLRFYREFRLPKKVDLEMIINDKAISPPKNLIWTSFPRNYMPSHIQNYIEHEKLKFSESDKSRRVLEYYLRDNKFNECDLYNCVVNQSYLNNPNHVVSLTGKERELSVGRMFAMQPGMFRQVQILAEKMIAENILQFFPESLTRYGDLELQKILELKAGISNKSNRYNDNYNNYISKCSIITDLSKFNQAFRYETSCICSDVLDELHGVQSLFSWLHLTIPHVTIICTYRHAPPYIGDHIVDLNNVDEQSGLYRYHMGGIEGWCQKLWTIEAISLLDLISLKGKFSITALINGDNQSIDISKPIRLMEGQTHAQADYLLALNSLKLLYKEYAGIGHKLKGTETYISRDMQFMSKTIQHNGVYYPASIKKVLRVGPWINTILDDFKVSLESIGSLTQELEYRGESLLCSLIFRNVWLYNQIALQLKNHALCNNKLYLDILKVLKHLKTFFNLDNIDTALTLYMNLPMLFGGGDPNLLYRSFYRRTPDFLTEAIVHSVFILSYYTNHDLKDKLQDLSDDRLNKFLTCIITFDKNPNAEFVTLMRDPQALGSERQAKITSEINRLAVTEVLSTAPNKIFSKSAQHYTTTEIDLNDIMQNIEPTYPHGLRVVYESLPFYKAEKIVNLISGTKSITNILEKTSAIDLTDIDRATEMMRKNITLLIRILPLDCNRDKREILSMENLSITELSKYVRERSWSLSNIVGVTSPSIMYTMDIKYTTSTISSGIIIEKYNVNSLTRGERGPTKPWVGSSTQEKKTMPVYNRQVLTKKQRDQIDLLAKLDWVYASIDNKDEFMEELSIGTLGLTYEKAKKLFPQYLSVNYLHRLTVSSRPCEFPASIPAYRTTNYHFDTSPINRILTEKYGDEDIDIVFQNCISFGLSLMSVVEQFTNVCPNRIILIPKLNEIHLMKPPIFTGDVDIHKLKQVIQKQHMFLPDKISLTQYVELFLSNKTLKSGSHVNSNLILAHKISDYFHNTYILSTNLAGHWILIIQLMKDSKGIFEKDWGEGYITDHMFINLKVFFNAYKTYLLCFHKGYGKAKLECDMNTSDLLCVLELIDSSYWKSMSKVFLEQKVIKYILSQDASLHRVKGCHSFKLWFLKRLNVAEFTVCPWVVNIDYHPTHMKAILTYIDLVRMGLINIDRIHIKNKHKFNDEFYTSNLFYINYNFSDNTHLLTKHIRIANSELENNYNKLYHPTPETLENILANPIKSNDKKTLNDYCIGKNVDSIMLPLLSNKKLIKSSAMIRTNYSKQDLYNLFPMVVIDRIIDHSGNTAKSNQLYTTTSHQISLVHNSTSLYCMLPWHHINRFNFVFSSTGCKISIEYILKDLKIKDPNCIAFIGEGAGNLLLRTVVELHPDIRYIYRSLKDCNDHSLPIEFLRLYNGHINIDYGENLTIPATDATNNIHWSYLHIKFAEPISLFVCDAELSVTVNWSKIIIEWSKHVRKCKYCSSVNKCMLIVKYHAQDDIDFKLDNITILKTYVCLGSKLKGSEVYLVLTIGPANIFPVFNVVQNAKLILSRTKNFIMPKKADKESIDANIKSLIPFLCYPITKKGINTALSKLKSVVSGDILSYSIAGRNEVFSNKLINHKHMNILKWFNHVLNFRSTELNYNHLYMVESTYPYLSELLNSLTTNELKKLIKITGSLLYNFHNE
T1 sequence (P03421 whole entry, further chain): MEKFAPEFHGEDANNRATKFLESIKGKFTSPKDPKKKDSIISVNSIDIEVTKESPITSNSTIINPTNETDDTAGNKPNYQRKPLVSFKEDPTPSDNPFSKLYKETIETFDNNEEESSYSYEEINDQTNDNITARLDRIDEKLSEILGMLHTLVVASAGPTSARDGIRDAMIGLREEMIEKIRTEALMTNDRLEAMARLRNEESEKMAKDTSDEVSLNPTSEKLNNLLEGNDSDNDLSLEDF
Briefly: RSV RNP assay (inhibition of RSV RNP transcription). Format: biochemical, RSV A2. Particulars: 90 minute incubation at 30° C., total radiolabeled transcripts. As to the method:
RSV ribonucleoprotein (RNP) complexes were prepared from a method modified from Mason at al (1). HEp-2 cells were plated at a density of 7.1×10^4 cells/cm^2 in MEM+10% fetal bovine serum (FBS) and allowed to attach overnight at 37° C. (5% CO2). Following attachment, the cells were infected with RSV A2 (M01=5) in 35 mL MEM+2% FBS. At 20 hours post-infection, the media was replaced with MEM+2% FBS supplemented with 2 μg/mL actinomycin D and returned to 37° C. for one hour. The cells were then washed once with PBS and treated with 35 mL of PBS+250 μg/mL lyso-lecithin for one minute, after which all liquid was aspirated. The cells were harvested by scrapping them into 1.2 mL of buffer A [50 mM TRIS acetate (pH 8.0), 100 mM potassium acetate, 1 mM DTT and 2 μg/mL actinomycin D] and lysed by repeated passage through an 18 gauge needle (10 times). The cell lysate was placed in ice for 10 minutes and then centrifuged at 2400g for 10 minutes at 4° C. The supernatant (S1) was removed and the pellet (P1) was disrupted in 600 uL of Buffer B [10 mM TRIS acetate (pH 8.0), 10 mM potassium acetate and 1.5 mM MgCl2] supplemented with 1% Triton X-100 by repeated passage through an 18 gauge needle (10 times). The resuspended pellet was placed in ice for 10 minutes and then centrifuged at 2400g for 10 minutes at 4° C. The supernatant (S2) was removed and the pellet (P2) was disrupted in 600 uL of Buffer B supplemented with 0.5% deoxycholate and 0.1% Tween 40. The resuspended pellet was placed in ice for 10 minutes and then centrifuged at 2400g for 10 minutes at 4° C. The supernatant (S3) fraction, containing the enriched RSV RNP complexes, was collected and the protein concentration determined by UV absorbance at 280 nm. Aliquoted RSV RNP S3 fractions were stored at −80° C.
Transcription reactions contained 25 μg of crude RSV RNP complexes in 30 μL of reaction buffer [50 mM TRIS-acetate (pH 8.0), 120 mM potassium acetate, 5% glycerol, 4.5 mM MgCl2, 3 mM DTT, 2 mM ethyleneglycol-bis(2-aminoethylether)-tetraacetic acid (EGTA), 50 μg/mL BSA, 2.5 U RNasin (Promega), ATP, GTP, UTP, CTP and 1.5 uCi [α-^32P] NTP (3000 Ci/mmol)]. The radiolabeled nucleotide used in the transcription assay was selected to match the nucleotide analog being evaluated for inhibition of RSV RNP transcription. Cold, competitive NTP was added at a final concentration of one-half its Km (ATP=20 μM, GTP=12.5 μM, UTP=6 μM and CTP=2 μM). The three remaining nucleotides were added at a final concentration of 100 μM.
To determine whether nucleotide analogs inhibited RSV RNP transcription, compounds were added using a 6 step serial dilution in 5-fold increments. Following a 90 minute incubation at 30° C., the RNP reactions were stopped with 350 μL of Qiagen RLT lysis buffer and the RNA was purified using a Qiagen RNeasy 96 kit. Purified RNA was denatured in RNA sample loading buffer (Sigma) at 65° C. for 10 minutes and run on a 1.2% agarose/MOPS gel containing 2M formaldehyde. The agarose gel was dried and exposed to a Storm phosphorimager screen and developed using a Storm phosphorimager (GE Healthcare). The concentration of compound that reduced total radiolabeled transcripts by 50% (IC50) was calculated by non-linear regression analysis of two replicates.
In the case of `C#C[C@]1(COP(=O)(O)OP(=O)(O)OP(=O)(O)O)O[C@@H](c2ccc3c(N)ncnn23)[C@H](F)[C@@H]1O` [Example 7, ((2R,3R,4R,5S)-5-(4-aminopyrrolo[1,24][1,2,4]triazin-7-yl)-2-ethynyl-4-fluoro-3-hydroxytetrahydrofuran-2-yl)methyl tetrahydrogen triphosphate], the pIC50 was 6.00. The result for `N#C[C@]1(COP(=O)(O)OP(=O)(O)OP(=O)(O)O)O[C@@H](c2ccc3c(N)ncnn23)[C@H](O)[C@@H]1O` [Example 8, ((2R,3S,4R,5S)-5-(4-aminopyrrolo[1,2-f][1,2,4]triazin-7-yl)-2-cyano-3,4-dihydroxytetrahydrofuran-2-yl)methyl tetrahydrogen triphosphate] reads 7.60; that for `[N-]=[N+]=N[C@]1(COP(=O)(O)OP(=O)(O)OP(=O)(O)O)O[C@@H](c2ccc3c(N)ncnn23)[C@H](O)[C@@H]1O` [Example 9, ((2R,3S,4R,5S)-5-(4-aminopyrrolo[2,1-f][1,2,4]triazin-7-yl)-2-azido-3,4-dihydroxytetrahydrofuran-2-yl)methyl tetrahydrogen triphosphate], 6.92; that for `C=C[C@]1(COP(=O)(O)OP(=O)(O)OP(=O)(O)O)O[C@@H](c2ccc3c(N)ncnn23)[C@H](F)[C@@H]1O` [Example 17, ((2R,3R,4R,5S)-5-(4-aminopyrrolo[2,1-f][1,2,4]triazin-7-yl)-4-fluoro-3-hydroxy-2-vinyltetrahydrofuran-2-yl)methyl tetrahydrogen triphosphate], 6.25. In turn, `CC[C@]1(COP(=O)(O)OP(=O)(O)OP(=O)(O)O)O[C@@H](c2ccc3c(N)ncnn23)[C@H](F)[C@@H]1O` [Example 18, ((2R,3R,4R,5S)-5-(4-aminopyrrolo[2,1-f][1,2,4]triazin-7-yl)-2-ethyl-4-fluoro-3-hydroxytetrahydrofuran-2-yl)methyl tetrahydrogen triphosphate] showed a pIC50 of 6.38. Turning to `[N-]=[N+]=N[C@]1(COP(=O)(O)OP(=O)(O)OP(=O)(O)O)O[C@@H](c2ccc3c(N)ncnn23)[C@H](F)[C@@H]1O` [Example 27, ((2R,3R,4R,5S)-5-(4-aminopyrrolo[2,1-f][1,2,4]triazin-7-yl)-2-azido-4-fluoro-3-hydroxytetrahydrofuran-2-yl)methyl tetrahydrogen triphosphate], the pIC50 was 7.01. For `[N-]=[N+]=N[C@]1(COP(=O)(O)OP(=O)(O)OP(=O)(O)O)O[C@@H](c2cc(F)c3c(N)ncnn23)[C@H](F)[C@@H]1O` [Example 28, ((2R,3R,4R,5S)-5-(4-amino-5-fluoropyrrolo[2,1f-][1,2,4]triazin-7-yl)-2-azido-4-fluoro-3-hydroxytetrahydrofuran-2-yl)methyl tetrahydrogen triphosphate], the pIC50 is 7.07. For `[N-]=[N+]=N[C@]1(COP(=O)(O)OP(=O)(O)OP(=O)(O)O)O[C@@H](c2ccc3c(N)nc(F)nn23)[C@H](F)[C@@H]1O` [Example 29, ((2R,3R,4R,5S)-5-(4-amino-2-fluoropyrrolo[2,1-f][1,2,4]triazin-7-yl)-2-azido-4-fluoro-3-hydroxytetrahydrofuran-2-yl)methyl tetrahydrogen triphosphate], the pIC50 was 7.10.

`N#C[C@]1(COP(=O)(O)OP(=O)(O)OP(=O)(O)O)O[C@@H](c2cc(F)c3c(N)ncnn23)[C@H](O)[C@@H]1O` [Example 32, ((2R,3S,4R,5S)-5-(4-amino-5-fluoropyrrolo[2,1f-][1,2,4]triazin-7-yl)-2-cyano-3,4-dihydroxytetrahydrofuran-2-yl)methyl tetrahydrogen triphosphate] showed a pIC50 of 7.66.

The values above are taken from patent publication US9388208B2, “Pyrrolo[1,2-f][1,2,4]triazines useful for treating respiratory syncitial virus infections” (Gilead Sciences, Inc., priority 2013, dated 2016).
